Data reported in patent publication EP3095872A1, “A METHOD OF PRODUCING ALPHA AMINO ACIDS” (Evonik Degussa GmbH, priority 2015, dated 2016).
Like-named read-outs stand apart in the source and are kept apart here. Marks after values point to notes of the source that are not given here.

Experiments:
[1] = test system: leucine-DH; experiment: deamination of L-norleucine and L-leucine using leucine-DH, NADH formation at 340 nm; format: biochemical; details: 10 mM substrate; 10 mM NAD+; pH 8.5; UV absorption at 340 nm
Procedure: Deamination of L-norleucine and L-leucine (both commercial standards) was performed using a purified leucine-DH. Reactions contained 10 mM substrate, 10 mM NAD+ and 5 µl leucine-DH in a final volume of 1 ml Tris-HCl (pH 8.5, 0.1 M). Oxidation of the amino acids was successful as indicated by increasing UV absorption at 340 nm, corresponding to (concomitant) formation of NADH (Figure 3).

[2] = test system: P450Cla; experiment: conversion of fatty acid substrates 1a-d with P450Cla, oxidant H2O2; format: biochemical; details: for 2a-d: H2O2; for Conversion: 3 µM P450Cla, 24 h, RT, values marked a based on substrate depletion
Procedure: (§1) P450Cla was ordered as synthetic gene and cloned into the pET28a expression vector. […] The dialysis buffer was supplemented with 300 mM NaCl to prevent precipitation of P450Cla. Next, hydroxylation of fatty acid substrates 1a-d (scheme 2) was performed employing purified P450Cla and P450BSß. The oxidant source was varied in case of P450Cla while only H2O2 was used with P450BSß.
Reaction conditions for P450Cla: 3µM P450Cla; Tris-HCl (pH 7.5; 0.1 M); 2.5 to 5 % EtOH (cosolvent for the substrate).
(§2) All reactions were performed in closed glass vials for 24 h reaction time at RT with 170 rpm shaking. The reactions were quenched by addition of 100 µl 5 N HCl. Extractions were performed with 500 µl EtOAc containing 0.1 % 1-decanol as internal standard. After drying over Na2SO4, derivatization of acids to corresponding methyl esters was realized by mixing 150 µl of organic phase with 90µl of MeOH prior to supplementation of 20 µl of TMSCHN2 for esterification. Samples were analyzed by GC-FID and GC-MS. Commercial standards of 2-hydroxycaproic acid (2a), 2-hydroxyoctanoic acid (2b) and 2-oxooctanoic acid (4b) were used as references. Calibration curves were obtained from standards 1a-d and 2a-b prepared identically to the reaction mixtures (5 concentration points from 10 µM to 1 mM).

[3] = molecular target: T1, CYPBSß (Bacillus subtilis, UniProt O31440); experiment: conversion of fatty acid substrates with CYPBSß, oxidant H2O2; format: biochemical; details: for 2a-d: H2O2; for Conversion: 3 µM P450BSß, KPi pH 7.0, 24 h, values marked a based on substrate depletion
T1 construct: made in house
Procedure: as §1
Reaction conditions for P450BSß: 3µM P450BSß; KPi buffer (pH 7.0; 0.1 M); 5 % EtOH (cosolvent). […] All products were identified by GC-MS and/or comparison with authentic materials.
as §2

[4] = test system: L- and D-HICDH; experiment: oxidation of alpha-hydroxy acids with L- and D-HICDH, NADH formation at 340 nm; format: biochemical; details: for NADH concentration: after 1 min reaction time, estimated (Figure 2); for Oxidation of the α-hydroxy acid substrates: 1 or 10 mM substrate, 10 mM NAD+, pH 8.5, UV absorption at 340 nm
Procedure: A modified protocol for oxidation of 2-hydroxy acids with L-and D-HICDH was established allowing oxidation of 2-hydroxyhexanoic acid and 2-hydroxyoctanoic acid (both commercial standards) that are produced in step 1 of the cascade (Scheme 1). Reactions contained 1 or 10 mM substrate, 1 % DMSO, 10 mM NAD+ and 0.25 mg of L- and D-HICDH (cell free freeze-dried lysates) in a final volume of 1 ml Tris-HCl (pH 8.5, 0.1 M). Oxidation of the α-hydroxy acid substrates was successful as indicated by increasing UV absorption at 340 nm, corresponding to (concomitant) formation of NADH (Figure 2).

[5] = test system: D/L-HICDH-YcnD; experiment: oxidation/dehydrogenation of alpha-hydroxy acids 2a-b using D/L-HICDH with NADH-oxidase YcnD; format: biochemical; details: 10 mM substrate; with YcnD and catalase; KPi pH 7.5; 1 mM NAD+ (also 6.75 mM); RT, 24 h
[6] = test system: D/L-HICDH; experiment: oxidation/dehydrogenation of alpha-hydroxy acids 2a-b using D/L-HICDH; format: biochemical; details: 10 mM substrate; KPi pH 7.5; 1 mM NAD+ (also 6.75 mM); RT, 24 h
[7] = molecular target: YcnD (Bacillus subtilis, UniProt P94424); experiment: oxidation/dehydrogenation of alpha-hydroxy acids 2a-b, YcnD alone; details: 10 mM substrate; YcnD without HICDH; KPi pH 7.5; RT, 24 h
[8] = test system: P450Cla, L- and D-HICDH, leucine-DH; experiment: three-step one-pot cascade of fatty acid to amino acid (TLC ninhydrin, GC-MS); format: biochemical
Procedure: Hydroxylation of all four fatty acid substrates (C4, C6, C8, C10) was performed as described above using 3 µM P450Cla, 10 mM substrate and 2.5 % EtOH in a final volume of 1 ml Tris-HCl (pH 7.5, 0.1 M). H2O2 was supplemented every 30 min (23 times; 36.8 mM total). After 24 h, the hydroxylation reaction (step 1) was stopped by adding 1200 U catalase (1 mg), 20µl of (NH4)2SO4(2.5 M stock) and the pH was adjusted to 8.5 using 1 M NaOH. For step 2 and 3 of the cascade, Land D-HICDH (0.25 mg), 10 mM NAD+ and 5 µl purified leucine-DH were added to the reaction mixture. After 24 h reaction time, 2 µl of the reaction volume were spotted on a TLC plate along with a commercial standard of L-norleucine as reference material (positive control). After elution of products acetic acid/H2O/n-butanol as mobile phase (1:1:3), the plate was stained with ninhydrin and heated gently for colour development. […] The following control reactions were performed to confirm the overall success of the two step cascade leaving one of the following components out of the reaction: 1) P450; 2) L- or D-HICDH; 3) Leu-DH; 4) fatty acid substrate; 5) H2O2; 6) (NH4)2SO4; 7) NAD+. The reaction samples were analyzed by TLC as shown before, but formation of norleucine could not be detected. […]

[9] = test system: P450Cla; experiment: alpha-hydroxylation of selected fatty acids, catalytic and kinetic characterization of P450Cla; format: biochemical; details: for specific activity U mg^-1: P450Cla 48 kDa, values only relevant at initial rate; for Coupling*: mol product per mol H2O2; for Product: 10 mM fatty acid, 0.5 µM P450Cla (C10), 1 µM (C8, C6), Tris-HCl pH 7.5, RT, triplicate
Procedure: Hydroxylation of selected fatty acids was carried out using a fresh preparation of purified P450Cla. P450Cla was characterised for key catalytic parameters specific activities were determined for three selected substrates as shown in Table 1. Table 1: Catalytic and kinetic characterization of P450Cla for conversion of 10 mM of selected fatty acids. All reactions were performed in triplicate.
Conditions: 0.5 µM P450Cla used in reactions with C10; 1 µM P450Cla used in reactions with C8 and C6; All reactions were performed in Tris-HCl (pH 7.5, 0.1 M) at RT and 170 rpm shaking in closed glass vials; *molProduct^-1 molH2O2^-1; ^§molecular weight of P450Cla is 48 kDa, values only relevant at initial rate.

[10] = molecular target: T2, P450 BM3 variant M2 (Priestia megaterium, UniProt P14779, I402M/R48S/Y52W); format: biochemical, Bacillus megaterium; details: 50 mM substrate; O2 as oxidant; GDH/glucose NADPH regeneration; absent in control reactions
T2 construct: made in house; host or cells: E. coli BL21 Gold (DE3)-derived E. coli lacIQ1 Gold (DE3)
Procedure: Ethyl acetoxy-butanoate (EAB) was converted with P450 BM3 variant M2 employing O2 as oxidant.
The essential NADPH cofactor was regenerated using a glucose dehydrogenase (GDH) and glucose as shown in Scheme 3. [drawing 4]
Reactions were done in 1 mL scale (KPi-buffer, pH 7.5, 0.1 M) containing following components: • 12 U GDH • 100 mM glucose • 400 µM NADP+ • 50 mM EBA (substrate) in DMSO (5 % V/V DMSO final) • 50 mg cell free freeze dried lysate of P450 BM3 variant M2
For analysis, 100 µl of the reaction volume were mixed with 100 µl acetonitrile followed by centrifugation to remove insoluble particles. The supernatant was diluted 1:50 in H2O/acetonitrile (50:50; V/V) followed by injection into the LC-MS.
In addition, the product peaks elute earlier than the substrate (3.699 min) indicating a higher polarity possibly due to a hydroxylation of EAB.

[11] = 5 mM substrate, H2O2 9.6 mM total
[12] = 10 mM substrate, H2O2 19.2 mM total
[13] = 5 mM substrate, H2O2 8 mM total
[14] = 10 mM substrate, H2O2 16 mM total

T1 sequence (O31440 whole entry): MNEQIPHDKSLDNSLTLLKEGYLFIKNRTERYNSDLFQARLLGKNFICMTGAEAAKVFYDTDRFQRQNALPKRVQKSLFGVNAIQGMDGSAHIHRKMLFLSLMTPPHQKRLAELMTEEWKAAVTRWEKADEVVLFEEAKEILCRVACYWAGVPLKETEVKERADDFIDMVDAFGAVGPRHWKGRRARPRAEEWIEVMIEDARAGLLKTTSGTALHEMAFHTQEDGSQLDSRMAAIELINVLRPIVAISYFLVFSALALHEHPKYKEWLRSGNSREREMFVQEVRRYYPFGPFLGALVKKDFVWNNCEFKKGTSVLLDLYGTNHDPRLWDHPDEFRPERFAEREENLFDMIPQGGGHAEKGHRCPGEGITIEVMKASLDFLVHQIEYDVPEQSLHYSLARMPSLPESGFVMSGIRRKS
Chain of YcnD (P94424 whole entry): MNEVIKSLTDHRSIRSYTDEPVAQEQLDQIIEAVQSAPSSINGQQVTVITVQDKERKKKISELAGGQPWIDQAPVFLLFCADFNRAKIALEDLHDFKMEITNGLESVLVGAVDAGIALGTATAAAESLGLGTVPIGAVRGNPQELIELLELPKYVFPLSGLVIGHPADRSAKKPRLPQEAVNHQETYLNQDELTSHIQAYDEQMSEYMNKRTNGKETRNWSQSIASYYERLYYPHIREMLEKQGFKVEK
T2 sequence (P14779 whole entry R48S/Y52W/I402M): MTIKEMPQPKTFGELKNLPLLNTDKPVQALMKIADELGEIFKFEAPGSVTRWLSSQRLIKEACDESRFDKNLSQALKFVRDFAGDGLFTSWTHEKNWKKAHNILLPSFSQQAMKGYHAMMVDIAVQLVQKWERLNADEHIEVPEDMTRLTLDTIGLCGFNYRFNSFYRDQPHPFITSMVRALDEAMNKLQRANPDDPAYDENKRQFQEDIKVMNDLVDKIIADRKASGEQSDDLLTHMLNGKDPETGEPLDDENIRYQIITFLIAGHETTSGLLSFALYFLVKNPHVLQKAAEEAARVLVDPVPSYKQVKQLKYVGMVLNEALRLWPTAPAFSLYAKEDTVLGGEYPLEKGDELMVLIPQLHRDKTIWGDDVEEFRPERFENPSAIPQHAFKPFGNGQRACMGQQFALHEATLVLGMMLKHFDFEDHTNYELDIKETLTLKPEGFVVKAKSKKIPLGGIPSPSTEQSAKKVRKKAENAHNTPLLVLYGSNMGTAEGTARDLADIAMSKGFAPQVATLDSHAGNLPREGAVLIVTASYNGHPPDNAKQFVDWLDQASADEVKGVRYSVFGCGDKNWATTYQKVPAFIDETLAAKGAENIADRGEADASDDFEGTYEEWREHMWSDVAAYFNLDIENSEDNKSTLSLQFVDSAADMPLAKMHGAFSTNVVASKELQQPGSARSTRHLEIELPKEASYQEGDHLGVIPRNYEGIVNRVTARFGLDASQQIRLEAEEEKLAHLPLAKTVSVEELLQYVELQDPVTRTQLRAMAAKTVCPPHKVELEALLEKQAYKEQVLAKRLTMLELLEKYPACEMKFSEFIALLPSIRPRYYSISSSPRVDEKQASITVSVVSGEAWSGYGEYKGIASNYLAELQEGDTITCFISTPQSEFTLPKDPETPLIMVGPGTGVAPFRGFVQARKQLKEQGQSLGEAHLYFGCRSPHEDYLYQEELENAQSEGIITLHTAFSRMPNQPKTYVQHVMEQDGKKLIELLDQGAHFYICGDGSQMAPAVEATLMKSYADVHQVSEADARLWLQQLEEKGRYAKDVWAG

CC(C)C[C@H](N)C(=O)O [L-leucine]
Oxidation of the amino acids [1]: successful

CCCC[C@H](N)C(=O)O [L-norleucine]
Oxidation of the amino acids [1]: successful

CCCCCC(=O)O [Substrate 1a, hexanoic acid]
2a-d ([2]; 5 mM substrate): 3.1 mM | Conversion [2, 11]: 62% | Conversion [2, 12]: 51% | 2a-d ([2]; 10 mM substrate, values marked c outside of calibration range): 5.1^c mM | 2a-d ([3]; 5 mM substrate): 08 mM | Conversion [3, 13]: 16% | α/β-Regioselectivity (2a-d vs 3a-d) ([3]; 5 mM substrate, share of 2a, 3a not detected): 2a >95%^e | 2a-d ([3]; 10 mM substrate): 1.1 mM | Conversion [3, 14]: 11% | α/β-Regioselectivity (2a-d vs 3a-d) ([3]; 10 mM substrate, share of 2a, 3a not detected): 2a >95%^e

CCCCCCCC(=O)O [Substrate 1b, octanoic acid]
Conversion [2, 11]: 96% | Conversion [2, 12]: >99%

CCCCCCCCCC(=O)O [Substrate 1c, decanoic acid]
Conversion [2, 11]: >99^a % | Conversion [2, 12]: >99^a % | Conversion [3, 13]: 54^a % | α/β-Regioselectivity (2a-d vs 3a-d) ([3]; 5 mM substrate, ratio α-hydroxy/β-hydroxy product): 2c/3c 64/36 | Conversion [3, 14]: 46^a % | α/β-Regioselectivity (2a-d vs 3a-d) ([3]; 10 mM substrate, ratio α-hydroxy/β-hydroxy product): 2c/3c 56/44

CCCCC(O)C(=O)O (centres unmarked) [Substrate 2a, 2-hydroxycaproic acid]
NADH concentration ([4]; 1 mM substrate): 45 µM | NADH concentration ([4]; 10 mM substrate): 142 µM | Oxidation of the α-hydroxy acid substrates [4]: successful | α-Ketoacid 4a/b detected [Y/N] [5]: No | α-Ketoacid 4a/b detected [Y/N] [6]: No | α-Ketoacid 4a/b detected [Y/N] [7]: No

CCCCCCC(O)C(=O)O (centres unmarked) [Substrate 2b, 2-hydroxyoctanoic acid]
NADH concentration ([4]; 1 mM substrate): 41 µM | NADH concentration ([4]; 10 mM substrate): 126 µM | Oxidation of the α-hydroxy acid substrates [4]: successful | α-Ketoacid 4a/b detected [Y/N] [5]: Yes (traces) | α-Ketoacid 4a/b detected [Y/N] [6]: No | α-Ketoacid 4a/b detected [Y/N] [7]: No

CCCCCC(=O)O [Substrate C6, hexanoic acid]
production of norleucine (GC-MS after derivatization) ([8]; 10 mM hexanoic acid, Figure 4): successful production of norleucine | formation of norleucine / amino acid (TLC, ninhydrin staining) ([8]; 10 mM substrate, step 1 24 h, steps 2 and 3 24 h, one pot): distinct red spot | Selectivity [% α-OH] [9]: > 90% | specific activity [9]: ≥ 1 U mg^-1 | Selectivity [% α-OH] ([9]; 5 min, H2O2 0.8 mM): >95% | TON ([9]; 5 min, H2O2 0.8 mM): 139 min⁻¹ | TTN ([9]; 5 min, H2O2 0.8 mM): 695 | specific activity U mg^-1 ([9]; 5 min, H2O2 0.8 mM): 2.9 U mg^-1 | Coupling* ([9]; 5 min, H2O2 0.8 mM): 87% | Selectivity [% α-OH] ([9]; 15 min, H2O2 0.8 mM): >95% | TON ([9]; 15 min, H2O2 0.8 mM): 47 min⁻¹ | TTN ([9]; 15 min, H2O2 0.8 mM): 706 | specific activity U mg^-1 ([9]; 15 min, H2O2 0.8 mM): 1.0 U mg^-1 | Coupling* ([9]; 15 min, H2O2 0.8 mM): 88% | Selectivity [% α-OH] ([9]; 30 min, H2O2 1.6 mM): >95% | TON ([9]; 30 min, H2O2 1.6 mM): 29 min⁻¹ | TTN ([9]; 30 min, H2O2 1.6 mM): 880 | specific activity U mg^-1 ([9]; 30 min, H2O2 1.6 mM): 0.6 U mg^-1 | Coupling* ([9]; 30 min, H2O2 1.6 mM): 55%

CCCCCCCC(=O)O [Substrate C8, octanoic acid]
specific activity [9]: ≥ 1 U mg^-1 | Product ([9]; 5 min, H2O2 0.8 mM): 0.49 ± 0.02 mM | Product ([9]; 15 min, H2O2 0.8 mM): 0.51 ± 0.01 mM | Product ([9]; 30 min, H2O2 1.6 mM): 0.94 ± 0.05 mM | TON ([9]; 5 min, H2O2 0.8 mM): 98 min⁻¹ | TTN ([9]; 5 min, H2O2 0.8 mM): 488 | specific activity U mg^-1 ([9]; 5 min, H2O2 0.8 mM): 2.0 U mg^-1 | Coupling* ([9]; 5 min, H2O2 0.8 mM): 61% | TON ([9]; 15 min, H2O2 0.8 mM): 34 min⁻¹ | TTN ([9]; 15 min, H2O2 0.8 mM): 506 | specific activity U mg^-1 ([9]; 15 min, H2O2 0.8 mM): 07 U mg^-1 | Coupling* ([9]; 15 min, H2O2 0.8 mM): 63% | TON ([9]; 30 min, H2O2 1.6 mM): 31 min⁻¹ | TTN ([9]; 30 min, H2O2 1.6 mM): 938 | specific activity U mg^-1 ([9]; 30 min, H2O2 1.6 mM): 0.7 U mg^-1 | Coupling* ([9]; 30 min, H2O2 1.6 mM): 59%

Ethyl acetoxy-butanoate [EAB]
products of mass 190.08+1 (LC-MS) [10]: formation of two product peaks
